Assay results reported in ChEMBL document CHEMBL1150556, “Tetraazaacenaphthene, tetraazaphenalene and 1,3,4-thiadiazole derivatives as potential leishmanicides” (1997).

How the values were obtained:
[1] = tested on: Leishmania donovani; test: In vitro leishmanicidal activity determined by measuring 3H thymidine incorporation in promastigotes of Leishmania donovani; format: functional; parameters: concentration or dose not given beside the values
[2] = tested on: Leishmania donovani; test: In vivo leishmanicidal activity determined against amastigotes of Leishmania donovani in golden hamsters; details: Mesocricetus auratus; dose or concentration not given here
[3] = In vivo leishmanicidal activity determined against amastigotes of Leishmania donovani in golden hamsters; format: functional, Mesocricetus auratus; parameters: concentration or dose not given beside the values
[4] = tested on: Cricetulus griseus; test: TThe in vivo leishmanicidal activity of compound was determined against amastigotes of Leishmania donovani in golden hamsters (Mesocricetus auratus) at dose of 50 mg/kg for 5 days; Toxic; format: functional, organism-based; parameters: dose 50 mg/kg
[5] = tested on: Leishmania donovani; test: In vitro leishmanicidal activity of compound was determined by measuring 3H thymidine incorporation in promastigotes of Leishmania donovani at concentration of 100 uM; format: functional

Row | Compound | Inhibition [1] | Inhibition [3] | further results
1 | N#CC(=C1SCCS1)c1nnc(N)s1 | 18% |  | 
2 | Sodium stibogluconate |  |  | inhibition [2]: 100%
3 | O=c1c2c(=O)n(-c3ccc(F)cc3)c(=S)n3c2n(c(=S)n1-c1ccc(F)cc1)CC3 | 50% | 0% | 
4 | O=c1c2c(=O)n(-c3ccccc3)c(=S)n3c2n(c(=S)n1-c1ccccc1)CC3 | 85% | 81.3% | 
5 | CCn1c(=N)c2c(=O)n(CC)c(=S)n3c2n(c1=S)CC3 | 20% | 71.2% | 
6 | CCO/C(O)=C(\C1=NCCCN1)c1nnc(N)s1 | 73% | 44.7% | 
7 | CCn1c(=O)c2c(=O)n(CC)c(=S)n3c2n(c1=S)CC3 | 76% |  | 
8 | CCO/C(O)=C(\C1=NCCN1)c1nn2cc(-c3ccc(Cl)cc3)nc2s1 | 40% | 0% | 
9 | CCn1c(=O)c2c(=O)n(CC)c(=O)n3c2n(c1=O)CCC3 | 58% | 0% | 
10 | CCOC(=O)C(=C1SCCS1)c1nnc(N)s1 | 0% |  | 
11 | Cc1ccccc1-n1c(=O)c2c(=O)n(-c3ccccc3C)c(=O)n3c2n(c1=O)CC3 | 93% | 0% | 
12 | N=c1c2c(=O)n(-c3ccc(F)cc3)c(=S)n3c2n(c(=S)n1-c1ccc(F)cc1)CC3 | 99.3% |  | inhibition [4]: Toxic
13 | CCO/C(O)=C(\C1=NCCN1)c1nnc(N)s1 | 0% |  | 
14 | N=C(N)c1ccc(OCCCCCOc2ccc(C(=N)N)cc2)cc1 [PENTAMIDINE] |  |  | inhibition at 100 µM [5]: 100%
15 | CCn1c(=N)c2c(=O)n(CC)c(=S)n3c2n(c1=S)CCC3 | 99.2% | 50.7% | 
16 | N=c1c2c(=O)n(-c3ccccc3)c(=S)n3c2n(c(=S)n1-c1ccccc1)CC3 | 99.3% | 78.6% | 
17 | CCOC(=O)C(=C1SCCCS1)c1nnc(N)s1 | 0% |  | 
18 | CCO/C(O)=C(\C1=NCCN1)c1nn2cc(-c3ccc(Br)cc3)nc2s1 | 31% | 0% | 
19 | Cc1ccccc1-n1c(=N)c2c(=O)n(-c3ccccc3C)c(=O)n3c2n(c1=O)CC3 | 7% |  | 
